# In the kinase profiling compilation of Christmann-Franck et al. (2016):
# Molecular target: ABL2 (human) (UniProt P42684)
# Assay: radiometric filter-binding kinase assay, Kinase HotSpot
# Settings: compound 0.5 µM; ATP 10 µM
row,Compound,residual activity [%]
1,CS(=O)c1ccc(-c2nc(-c3ccc(F)cc3)c(-c3ccncc3)[nH]2)cc1 (stereo unspecified),91.5

# Molecular target: TTK (human) (UniProt P33981)
# Assay: as above
# Settings: compound 0.5 µM; ATP 10 µM
# Sequence of TTK (human) (P33981 whole entry, looked up): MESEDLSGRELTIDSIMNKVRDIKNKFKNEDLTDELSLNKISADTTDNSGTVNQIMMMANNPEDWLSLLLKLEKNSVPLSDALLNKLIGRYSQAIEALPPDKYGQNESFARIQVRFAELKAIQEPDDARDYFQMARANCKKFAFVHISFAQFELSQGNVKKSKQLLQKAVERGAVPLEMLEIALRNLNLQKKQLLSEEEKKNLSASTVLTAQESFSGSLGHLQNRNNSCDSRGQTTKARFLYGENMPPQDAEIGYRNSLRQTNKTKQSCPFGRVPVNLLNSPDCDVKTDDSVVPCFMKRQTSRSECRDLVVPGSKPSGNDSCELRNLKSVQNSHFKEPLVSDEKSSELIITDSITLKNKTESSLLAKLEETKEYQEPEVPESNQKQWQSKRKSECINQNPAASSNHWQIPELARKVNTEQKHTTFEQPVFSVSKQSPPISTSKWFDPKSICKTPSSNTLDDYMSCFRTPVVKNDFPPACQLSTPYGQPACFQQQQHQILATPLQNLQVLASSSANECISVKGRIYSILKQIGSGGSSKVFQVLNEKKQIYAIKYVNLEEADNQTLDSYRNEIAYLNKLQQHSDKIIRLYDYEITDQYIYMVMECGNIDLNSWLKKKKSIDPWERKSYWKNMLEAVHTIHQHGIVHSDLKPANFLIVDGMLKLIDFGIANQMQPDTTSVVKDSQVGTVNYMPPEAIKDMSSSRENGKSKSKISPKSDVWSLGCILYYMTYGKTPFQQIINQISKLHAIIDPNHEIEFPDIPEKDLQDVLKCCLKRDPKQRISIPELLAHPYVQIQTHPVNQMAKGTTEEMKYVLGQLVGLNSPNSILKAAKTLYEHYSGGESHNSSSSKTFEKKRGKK
row,Compound,residual activity [%]
1,CCN1/C(=C/C(C)=O)Sc2ccc(OC)cc21,88.7
2,COc1ccc(-c2cnc3c(-c4ccsc4)cnn3c2)cc1,94.2
3,C#Cc1cccc(Nc2ncnc3cc(OCCOC)c(OCCOC)cc23)c1,91.8
4,O=C1Nc2cc(Br)ccc2/C1=C1/Nc2ccccc2/C1=N\O,69.8
5,CS(=O)c1ccc(-c2nc(-c3ccc(F)cc3)c(-c3ccncc3)[nH]2)cc1 (stereo unspecified),99.9

# Molecular target: FGFR3 (human) (UniProt P22607)
# Assay: as above
# Settings: compound 0.5 µM; ATP 10 µM
# Sequence of FGFR3 (human) (P22607 whole entry, looked up): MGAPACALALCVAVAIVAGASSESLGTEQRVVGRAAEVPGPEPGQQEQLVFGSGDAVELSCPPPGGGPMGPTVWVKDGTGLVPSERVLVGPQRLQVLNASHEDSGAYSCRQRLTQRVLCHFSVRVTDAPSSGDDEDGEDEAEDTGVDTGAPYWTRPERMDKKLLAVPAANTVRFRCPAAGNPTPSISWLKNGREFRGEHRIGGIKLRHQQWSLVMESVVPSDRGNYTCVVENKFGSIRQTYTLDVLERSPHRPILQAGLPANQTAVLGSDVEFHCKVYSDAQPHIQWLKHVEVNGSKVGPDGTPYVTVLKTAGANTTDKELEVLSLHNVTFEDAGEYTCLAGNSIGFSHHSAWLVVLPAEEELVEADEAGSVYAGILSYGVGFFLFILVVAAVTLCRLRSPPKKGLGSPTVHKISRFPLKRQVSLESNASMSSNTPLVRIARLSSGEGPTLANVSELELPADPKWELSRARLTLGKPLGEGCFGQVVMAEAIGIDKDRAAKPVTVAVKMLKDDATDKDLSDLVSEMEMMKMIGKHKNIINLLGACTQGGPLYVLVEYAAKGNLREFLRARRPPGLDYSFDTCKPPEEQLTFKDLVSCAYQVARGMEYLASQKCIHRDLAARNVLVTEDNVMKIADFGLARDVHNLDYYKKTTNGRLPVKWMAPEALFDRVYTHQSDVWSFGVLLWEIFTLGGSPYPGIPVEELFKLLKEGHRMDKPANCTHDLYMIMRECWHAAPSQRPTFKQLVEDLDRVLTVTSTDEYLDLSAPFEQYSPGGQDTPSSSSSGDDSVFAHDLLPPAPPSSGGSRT
row,Compound,residual activity [%]
1,CCN1/C(=C/C(C)=O)Sc2ccc(OC)cc21,99.1
2,COc1ccc(-c2cnc3c(-c4ccsc4)cnn3c2)cc1,81.5
3,O=C1Nc2cc(Br)ccc2/C1=C1/Nc2ccccc2/C1=N\O,54.6
4,CS(=O)c1ccc(-c2nc(-c3ccc(F)cc3)c(-c3ccncc3)[nH]2)cc1 (stereo unspecified),97

# Molecular target: CAMK1D (human) (UniProt Q8IU85)
# Assay: as above
# Settings: compound 0.5 µM; ATP 10 µM
# Sequence of CAMK1D (human) (Q8IU85 whole entry, looked up): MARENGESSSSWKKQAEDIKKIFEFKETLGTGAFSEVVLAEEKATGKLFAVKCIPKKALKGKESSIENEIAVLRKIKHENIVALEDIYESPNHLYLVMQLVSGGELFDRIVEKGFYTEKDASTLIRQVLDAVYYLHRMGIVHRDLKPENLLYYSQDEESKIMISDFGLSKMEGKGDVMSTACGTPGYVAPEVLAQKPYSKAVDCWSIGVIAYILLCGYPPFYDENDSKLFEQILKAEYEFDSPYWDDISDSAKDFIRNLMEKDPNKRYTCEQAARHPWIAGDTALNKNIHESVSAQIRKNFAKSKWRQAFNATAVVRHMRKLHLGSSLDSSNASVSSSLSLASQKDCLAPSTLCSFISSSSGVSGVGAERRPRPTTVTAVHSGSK
row,Compound,residual activity [%]
1,CCN1/C(=C/C(C)=O)Sc2ccc(OC)cc21,105
2,COc1ccc(-c2cnc3c(-c4ccsc4)cnn3c2)cc1,93.5
3,C#Cc1cccc(Nc2ncnc3cc(OCCOC)c(OCCOC)cc23)c1,98.8
4,CS(=O)c1ccc(-c2nc(-c3ccc(F)cc3)c(-c3ccncc3)[nH]2)cc1 (stereo unspecified),105

# Molecular target: HIPK4 (human) (UniProt Q8NE63)
# Assay: as above
# Settings: compound 0.5 µM; ATP 10 µM
# Sequence of HIPK4 (human) (Q8NE63 whole entry, looked up): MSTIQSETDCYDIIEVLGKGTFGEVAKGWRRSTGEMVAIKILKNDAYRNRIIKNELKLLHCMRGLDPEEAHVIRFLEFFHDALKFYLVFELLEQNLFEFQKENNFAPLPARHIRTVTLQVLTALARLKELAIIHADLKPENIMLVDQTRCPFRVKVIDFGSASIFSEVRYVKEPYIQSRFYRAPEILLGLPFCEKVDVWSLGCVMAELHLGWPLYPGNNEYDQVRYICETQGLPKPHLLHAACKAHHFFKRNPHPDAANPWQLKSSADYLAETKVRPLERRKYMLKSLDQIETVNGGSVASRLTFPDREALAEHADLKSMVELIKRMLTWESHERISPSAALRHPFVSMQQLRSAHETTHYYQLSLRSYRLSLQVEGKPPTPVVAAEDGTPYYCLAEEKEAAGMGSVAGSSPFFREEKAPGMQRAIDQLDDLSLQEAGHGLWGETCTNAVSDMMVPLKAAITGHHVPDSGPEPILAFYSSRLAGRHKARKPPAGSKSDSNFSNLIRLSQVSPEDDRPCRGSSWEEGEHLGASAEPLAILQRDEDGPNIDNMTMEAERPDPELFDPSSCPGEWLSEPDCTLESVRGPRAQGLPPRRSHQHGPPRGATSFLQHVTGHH
row,Compound,residual activity [%]
1,CCN1/C(=C/C(C)=O)Sc2ccc(OC)cc21,94
2,COc1ccc(-c2cnc3c(-c4ccsc4)cnn3c2)cc1,108
3,O=C1Nc2cc(Br)ccc2/C1=C1/Nc2ccccc2/C1=N\O,106
4,CS(=O)c1ccc(-c2nc(-c3ccc(F)cc3)c(-c3ccncc3)[nH]2)cc1 (stereo unspecified),93.5

# Molecular target: STK24 (human) (UniProt Q9Y6E0)
# Assay: as above
# Settings: compound 0.5 µM; ATP 10 µM
# Sequence of STK24 (human) (Q9Y6E0 whole entry, looked up): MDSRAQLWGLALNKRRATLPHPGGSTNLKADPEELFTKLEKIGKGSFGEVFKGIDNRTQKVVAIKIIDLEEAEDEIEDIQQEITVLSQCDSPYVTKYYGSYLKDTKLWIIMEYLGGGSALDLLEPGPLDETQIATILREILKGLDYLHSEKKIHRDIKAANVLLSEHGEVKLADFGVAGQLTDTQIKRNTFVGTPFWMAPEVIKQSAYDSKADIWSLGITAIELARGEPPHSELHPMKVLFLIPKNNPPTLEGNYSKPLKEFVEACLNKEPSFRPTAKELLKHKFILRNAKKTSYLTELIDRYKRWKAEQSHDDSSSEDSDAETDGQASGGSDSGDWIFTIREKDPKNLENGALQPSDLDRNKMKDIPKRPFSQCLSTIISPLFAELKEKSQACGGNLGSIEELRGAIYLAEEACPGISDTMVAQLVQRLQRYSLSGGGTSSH
row,Compound,residual activity [%]
1,CCN1/C(=C/C(C)=O)Sc2ccc(OC)cc21,82.2
2,COc1ccc(-c2cnc3c(-c4ccsc4)cnn3c2)cc1,95.5
3,C#Cc1cccc(Nc2ncnc3cc(OCCOC)c(OCCOC)cc23)c1,115
4,O=C1Nc2cc(Br)ccc2/C1=C1/Nc2ccccc2/C1=N\O,90.9
5,CS(=O)c1ccc(-c2nc(-c3ccc(F)cc3)c(-c3ccncc3)[nH]2)cc1 (stereo unspecified),99

# Molecular target: SLK (human) (UniProt Q9H2G2)
# Assay: as above
# Settings: compound 0.5 µM; ATP 10 µM
row,Compound,residual activity [%]
1,CCN1/C(=C/C(C)=O)Sc2ccc(OC)cc21,86.8
2,COc1ccc(-c2cnc3c(-c4ccsc4)cnn3c2)cc1,86.3
3,C#Cc1cccc(Nc2ncnc3cc(OCCOC)c(OCCOC)cc23)c1,42
4,O=C1Nc2cc(Br)ccc2/C1=C1/Nc2ccccc2/C1=N\O,56.1
5,CS(=O)c1ccc(-c2nc(-c3ccc(F)cc3)c(-c3ccncc3)[nH]2)cc1 (stereo unspecified),94.1

# Molecular target: CDK7 CCNH MNAT1 (human) (UniProt P50613+P51948+P51946)
# Assay: as above
# Settings: compound 0.5 µM; ATP 10 µM
row,Compound,residual activity [%]
1,CCN1/C(=C/C(C)=O)Sc2ccc(OC)cc21,94.8
2,COc1ccc(-c2cnc3c(-c4ccsc4)cnn3c2)cc1,100
3,C#Cc1cccc(Nc2ncnc3cc(OCCOC)c(OCCOC)cc23)c1,107
4,O=C1Nc2cc(Br)ccc2/C1=C1/Nc2ccccc2/C1=N\O,79.1
5,CS(=O)c1ccc(-c2nc(-c3ccc(F)cc3)c(-c3ccncc3)[nH]2)cc1 (stereo unspecified),96.8

# Molecular target: EPHA3 (human) (UniProt P29320)
# Assay: as above
# Settings: compound 0.5 µM; ATP 10 µM
# Sequence of EPHA3 (human) (P29320 whole entry, looked up): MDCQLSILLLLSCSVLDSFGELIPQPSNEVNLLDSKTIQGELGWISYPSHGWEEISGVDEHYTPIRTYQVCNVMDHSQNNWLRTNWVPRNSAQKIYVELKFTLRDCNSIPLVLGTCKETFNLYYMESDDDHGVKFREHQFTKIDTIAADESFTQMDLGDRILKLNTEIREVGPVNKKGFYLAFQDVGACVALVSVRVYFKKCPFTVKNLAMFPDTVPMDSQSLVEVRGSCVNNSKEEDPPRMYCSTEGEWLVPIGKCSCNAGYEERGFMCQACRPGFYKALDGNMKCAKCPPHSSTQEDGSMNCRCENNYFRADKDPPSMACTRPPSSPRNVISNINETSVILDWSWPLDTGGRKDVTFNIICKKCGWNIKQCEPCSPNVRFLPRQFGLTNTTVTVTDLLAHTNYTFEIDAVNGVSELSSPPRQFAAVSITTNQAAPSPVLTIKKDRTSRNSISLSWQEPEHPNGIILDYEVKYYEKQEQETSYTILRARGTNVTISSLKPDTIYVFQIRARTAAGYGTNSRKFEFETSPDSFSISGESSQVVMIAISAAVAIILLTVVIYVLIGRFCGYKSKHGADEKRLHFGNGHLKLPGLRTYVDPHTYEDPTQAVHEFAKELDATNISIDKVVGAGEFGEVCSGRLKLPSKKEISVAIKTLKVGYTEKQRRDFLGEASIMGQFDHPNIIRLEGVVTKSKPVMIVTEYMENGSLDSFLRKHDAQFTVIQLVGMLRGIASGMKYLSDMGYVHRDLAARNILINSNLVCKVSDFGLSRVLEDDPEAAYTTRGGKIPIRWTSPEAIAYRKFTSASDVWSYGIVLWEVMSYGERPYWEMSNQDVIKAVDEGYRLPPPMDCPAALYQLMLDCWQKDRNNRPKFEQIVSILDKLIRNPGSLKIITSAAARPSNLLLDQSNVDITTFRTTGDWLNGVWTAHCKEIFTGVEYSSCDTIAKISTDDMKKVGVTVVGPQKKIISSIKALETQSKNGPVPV
row,Compound,residual activity [%]
1,CCN1/C(=C/C(C)=O)Sc2ccc(OC)cc21,89.9
2,COc1ccc(-c2cnc3c(-c4ccsc4)cnn3c2)cc1,93.4
3,C#Cc1cccc(Nc2ncnc3cc(OCCOC)c(OCCOC)cc23)c1,93.2
4,O=C1Nc2cc(Br)ccc2/C1=C1/Nc2ccccc2/C1=N\O,81.9
5,CS(=O)c1ccc(-c2nc(-c3ccc(F)cc3)c(-c3ccncc3)[nH]2)cc1 (stereo unspecified),96.1

# Molecular target: DYRK2 (human) (UniProt Q92630)
# Assay: as above
# Settings: compound 0.5 µM; ATP 10 µM
# Sequence of DYRK2 (human) (Q92630 whole entry, looked up): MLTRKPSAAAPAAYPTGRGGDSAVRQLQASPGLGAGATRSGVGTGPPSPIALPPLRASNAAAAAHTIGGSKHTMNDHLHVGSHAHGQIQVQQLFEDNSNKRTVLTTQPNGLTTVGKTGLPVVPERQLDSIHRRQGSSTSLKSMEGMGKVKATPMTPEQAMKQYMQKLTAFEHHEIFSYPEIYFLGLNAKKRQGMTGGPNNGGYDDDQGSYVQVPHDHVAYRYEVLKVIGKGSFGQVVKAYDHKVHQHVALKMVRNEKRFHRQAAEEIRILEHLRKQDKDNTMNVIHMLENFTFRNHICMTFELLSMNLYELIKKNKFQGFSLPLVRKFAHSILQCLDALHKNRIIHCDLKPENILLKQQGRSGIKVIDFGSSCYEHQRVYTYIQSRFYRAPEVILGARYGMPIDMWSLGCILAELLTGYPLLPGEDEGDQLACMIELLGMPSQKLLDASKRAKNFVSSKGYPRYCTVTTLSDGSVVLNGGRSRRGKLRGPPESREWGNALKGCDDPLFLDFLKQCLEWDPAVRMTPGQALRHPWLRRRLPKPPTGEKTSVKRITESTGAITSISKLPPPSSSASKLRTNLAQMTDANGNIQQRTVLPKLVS
row,Compound,residual activity [%]
1,CCN1/C(=C/C(C)=O)Sc2ccc(OC)cc21,19.5
2,COc1ccc(-c2cnc3c(-c4ccsc4)cnn3c2)cc1,71.1
3,CS(=O)c1ccc(-c2nc(-c3ccc(F)cc3)c(-c3ccncc3)[nH]2)cc1 (stereo unspecified),98.7

# Molecular target: PNCK (human) (UniProt Q6P2M8)
# Assay: as above
# Settings: compound 0.5 µM; ATP 10 µM
# Sequence of PNCK (human) (Q6P2M8 whole entry, looked up): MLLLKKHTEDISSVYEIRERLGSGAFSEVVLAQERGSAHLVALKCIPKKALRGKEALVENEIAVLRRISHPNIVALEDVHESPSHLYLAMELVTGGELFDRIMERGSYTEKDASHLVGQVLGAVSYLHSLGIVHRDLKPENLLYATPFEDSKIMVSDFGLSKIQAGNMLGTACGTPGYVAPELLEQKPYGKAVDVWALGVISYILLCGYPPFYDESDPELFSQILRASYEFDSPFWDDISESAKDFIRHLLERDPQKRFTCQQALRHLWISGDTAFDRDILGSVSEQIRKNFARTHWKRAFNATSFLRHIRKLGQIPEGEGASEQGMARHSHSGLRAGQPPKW
row,Compound,residual activity [%]
1,CCN1/C(=C/C(C)=O)Sc2ccc(OC)cc21,101
2,COc1ccc(-c2cnc3c(-c4ccsc4)cnn3c2)cc1,90.9
3,C#Cc1cccc(Nc2ncnc3cc(OCCOC)c(OCCOC)cc23)c1,103
4,O=C1Nc2cc(Br)ccc2/C1=C1/Nc2ccccc2/C1=N\O,105
5,CS(=O)c1ccc(-c2nc(-c3ccc(F)cc3)c(-c3ccncc3)[nH]2)cc1 (stereo unspecified),102
